From PMC10999543, “Identification of kinase modulators as host-directed therapeutics against intracellular methicillin-resistant Staphylococcus aureus” (Frontiers in Cellular and Infection Microbiology, 2024)

Legend:
A549 cells = assay type: cell-based, human; settings: 10 µM
Protocol: (§1) Before harvesting or lysing the cells of the intracellular infection assays, the supernatant from the cells was collected to quantify LDH release by the cells using the LDH cytotoxicity detection kit (Roche, Merck, Darmstadt, Germany) according to the manufacturer’s instructions. Triton X-100 results in maximum LDH release by permeabilizing the cells and was used as positive control. Quantification was performed with the EnVision plate reader.

AMPK [1] = test: Phosphorylation of ACC1 at Ser80 by flow cytometry (readout for AMPK activity); assay type: cell-based, human; settings: MRSA-infected HeLa cells
Protocol: To determine the expression of the HER kinase family, cells were harvested using PBS + 5 mM EDTA and fixed in 1% paraformaldehyde for 20 min at RT. To determine phosphorylation of ACC1 at Ser80, cells were harvested by incubation in pre-warmed trypsin-EDTA, which was neutralized after 5 min with an equal volume of FBS, and fixed in 4% ultra-pure formaldehyde (Bio Trend, Cologne, Germany) for 20 min at RT. For intracellular staining, the cells were permeabilized in ice-cold methanol for 20 min. Subsequently, the cells were blocked in PBS + 0.5% bovine serum albumin + 0.005% NaN3 (both from Sigma-Aldrich; FACS buffer) + 5% human serum for 5 min. The cells were labelled with primary and secondary antibodies (listed in Supplementary Table S1 ) in FACS buffer. Samples were measured on the FACSLyric and analysed using FlowJo 10 (FlowJo LCC, Ashland, OR, USA).

[2] = tested on: bioluminescent strain of MRSA; test: Real-time bioluminescence of MRSA-lux after infection of HeLa cells; assay type: cell-based, Staphylococcus aureus; settings: 10 µM, infected HeLa cells
Protocol: The cells were resuspended in cell culture medium without antibiotics, seeded with 10,000 cells/well into Costar flat-bottom 96-well plates (Corning, Amsterdam, the Netherlands), and were incubated overnight at 37°C/5% CO2. The next day, the bacteria were centrifuged at ≥1800 g for 15 min and resuspended in cold PBS + 5 mM ethylenediaminetetraacetic acid (EDTA). The number of CFUs present in the bacterial suspension was estimated from the optical density at 600 nm (OD600) by assuming 8x10^8 CFUs to be present in a bacterial suspension with OD600 = 1, based on prior titrations. The bacterial suspension was diluted in cell culture medium without antibiotics and added to the cells. […] The calculated mean MOI throughout all experiments was 6.8 ± 4.6 (mean ± SD). […]
MRSA cultures at a concentration corresponding to an absorbance of 0.1 at 600 nm were incubated with the kinase inhibitors at 10 μM in flat-bottom 96-well plates. The absorbance was measured using an EnVision plate reader (PerkinElmer). The plates were incubated at 37°C overnight and the absorbance was measured again the next day. Real-time measurement of bioluminescence by the MRSA-lux strain was performed in a white flat-bottom 96-wells plate using a SpectraMax i3x plate reader and an integration time set at 9000 ms.

[3] = tested on: other strains of S. aureus; test: CFU count in HeLa cells infected with other strains of S. aureus; assay type: cell-based, Staphylococcus aureus; settings: Supplementary Figure S8A
Protocol: The cells were resuspended in cell culture medium without antibiotics, seeded with 10,000 cells/well into Costar flat-bottom 96-well plates (Corning, Amsterdam, the Netherlands), and were incubated overnight at 37°C/5% CO2. The next day, the bacteria were centrifuged at ≥1800 g for 15 min and resuspended in cold PBS + 5 mM ethylenediaminetetraacetic acid (EDTA). The number of CFUs present in the bacterial suspension was estimated from the optical density at 600 nm (OD600) by assuming 8x10^8 CFUs to be present in a bacterial suspension with OD600 = 1, based on prior titrations. The bacterial suspension was diluted in cell culture medium without antibiotics and added to the cells. Accuracy of the multiplicity of infection (MOI) was validated by plating serial dilutions of the MRSA inoculums on Difco TS agar plates (BD Biosciences). The calculated mean MOI throughout all experiments was 6.8 ± 4.6 (mean ± SD). Infected cells were centrifuged for 3 min at 150 g and incubated for 1 hour at 37°C/5% CO2. Next, the cells were incubated with fresh cell culture medium supplemented with 30 µg/ml gentamicin sulphate (Lonza BioWhittaker, Basel, Switzerland) for 15 min at 37°C/5% CO2 to kill residual extracellular bacteria. […]

AMPK [4] = tested on: AMPK; design: method as in Elkins et al., 2016; settings: ref Elkins et al., 2016; cited from earlier work
MCF7 cells = assay type: cell-based, human; settings: 10 µM
Protocol: as §1

EGFR = tested on: EGFR; design: method as in Elkins et al., 2016; settings: PKIS1, Caliper assay, ref Elkins et al., 2016; cited from earlier work
HER4 = tested on: HER4; design: method as in Elkins et al., 2016; settings: PKIS1, Caliper assay, ref Elkins et al., 2016; cited from earlier work

## COc1ccc2[nH]c3c4[nH]c5ccc(OC)cc5c4c4c(c3c2c1)C(=O)NC4=O [GW296115X]
A549 cells
  cell viability of MRSA-infected cells (LDH-release): rescued the loss of viability
AMPK [1]
  ACC1 phosphorylation at Ser80: increased ACC1 phosphorylation
[2]
  effect on bioluminescent MRSA growth over time: acts rapidly
[3]
  activity against other strains of S. aureus (CFU): active
AMPK [4]
  action on AMPK in a biochemical assay: AMPK inhibitor

## CC(C)c1nc(-c2cccc(NS(=O)(=O)c3c(F)cccc3F)c2F)c(-c2ccnc(Nc3ccc(N4CCOCC4)nc3)n2)s1 [GSK2008607A]
MCF7 cells
  cell viability of MRSA-infected cells (LDH-release): significantly improved the overall survival

## O=S(=O)(CCNCc1ccc(-c2ccc3ncnc(Nc4ccc(OCc5cccc(F)c5)c(Cl)c4)c3c2)o1)c1ccccc1 [GW633459A]
EGFR
  % inhibition at 1 µM EGFR: 83%
HER4
  % inhibition at 1 µM HER4: 89%
